The results in this text go back to publication PMC7819857, “Identification of Inhibitors of Integrin Cytoplasmic Domain Interactions With Syk” (Frontiers in Immunology, 2021).

In the test the test system is Pyk-2 phosphorylation in THP-1 cells. In words: Integrin α4β1-induced phosphorylation of Pyk-2 in THP-1 cells plated on CS-1. The class given is cell-based, human. As to conditions: 100 µM loaded by glycerol shock. Here is the method: Syk phosphorylation assays were performed by immobilizing vascular cell adhesion molecule-1 (VCAM)-1 (3 ug/ml), CS-1-BSA (10 ug/ml), or specific monoclonal antibodies (anti-FcγRI mAb 276426, anti-α4β1 mAb 19H8, anti-β2 mAb 76C3, anti-αvβ3 mAb LM609 all at 5 ug/ml) overnight at 4°C in Tris-HCl pH 7.5, 150 mM NaCl, in 6-well plates (non-tissue culture treated, Becton Dickenson, cat# BD351146). Plates were then blocked with BSA (2% w/v) for 1 h at room temperature. […] After electrophoresis, proteins were transferred to nitrocellulose for 1 h 100 V room temperature, blocked in 5% non-fat milk in TBS-T, and probed with the indicated primary antibody at 1:1,000 overnight at 4°C, followed by species-appropriate HRP secondary antibody (Southern Biotech) at 1:5,000 (30 min at room temperature), and detected using Pierce West Pico (Thermo Scientific cat# 34580). […]
Figure 6 Selective inhibition of integrin signaling by ceftazidime. […] Data are expressed as mean ± range from duplicate determinations. […] Kinase activity is expressed as percent of maximum signal. Data are expressed as mean ± SEM (n = 3). **p < 0.01 (D) Selective effects of ceftazidime on integrin signaling. […] Phosphorylation of Syk (left and right panel) and Pyk-2 (center panel) was analyzed by immunoprecipitation and western blot. […] Results are expressed as the mean ± SEM. […]

For the molecule `CC(C)(O/N=C(\C(=O)N[C@@H]1C(=O)N2C(C(=O)[O-])=C(C[n+]3ccccc3)CS[C@H]12)c1csc(N)n1)C(=O)O` [ceftazidime], the “integrin α4β1 induced phosphorylation of Pyk-2” value is on record as “inhibited”.
